Source: ChEMBL document CHEMBL4325851, “Synthesis of aminopyrazole analogs and their evaluation as CDK inhibitors for cancer therapy” (Bioorg Med Chem Lett, 2018)

Experiments:
[1] = biological target: Cyclin-dependent kinase 5/CDK5 activator 1 (Homo sapiens) (UniProt Q00535+Q15078); assay: Inhibition of CDK5/p35 (unknown origin) at 100 nM in presence of ATP relative to control; type: protein-complex assay
MIA PaCa-2 [2] = assay: Induction of apoptosis in human MIAPaCa2 cells assessed as increase in caspases 3/7 activity at 10 uM after 12 hrs by Caspase-Glo assay relative to control; type: functional
[3] = Antiproliferative activity against human SUIT2 cells after 72 hrs by prestoblue assay; type: functional, cell-based; conditions: SUIT-2, 72 h
ASPC1 = assay: Antiproliferative activity against human AsPC1 cells after 72 hrs by prestoblue assay; type: functional, cell-based; conditions: ASPC1, 72 h
[4] = Antiproliferative activity against human S2-013 cells after 72 hrs by prestoblue assay; type: functional, cell-based
BXPC-3 = assay: Antiproliferative activity against human BxPC3 cells after 72 hrs by prestoblue assay; type: functional, cell-based; conditions: BXPC-3, 72 h
MIA PaCa-2 [5] = assay: Antiproliferative activity against human MIAPaCa2 cells after 72 hrs by prestoblue assay; type: functional, cell-based; conditions: MIA PaCa-2, 72 h
Aurora kinase A = biological target: T1, Aurora kinase A (Homo sapiens, UniProt O14965); assay: Inhibition of Aurora A (unknown origin)
T1 sequence (O14965 whole entry): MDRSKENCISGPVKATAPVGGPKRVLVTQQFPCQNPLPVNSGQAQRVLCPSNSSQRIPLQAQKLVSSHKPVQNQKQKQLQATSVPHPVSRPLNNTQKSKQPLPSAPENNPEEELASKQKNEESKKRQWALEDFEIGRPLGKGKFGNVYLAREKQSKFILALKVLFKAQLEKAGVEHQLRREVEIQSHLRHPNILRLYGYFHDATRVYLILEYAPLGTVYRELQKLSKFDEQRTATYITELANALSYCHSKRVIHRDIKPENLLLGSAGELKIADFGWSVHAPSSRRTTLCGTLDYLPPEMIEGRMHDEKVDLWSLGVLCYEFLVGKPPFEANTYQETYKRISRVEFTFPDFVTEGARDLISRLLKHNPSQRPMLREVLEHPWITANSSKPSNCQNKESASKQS

[6] = biological target: Serine/threonine-protein kinase PAK 1 (Homo sapiens, UniProt Q13153); assay: Inhibition of PAK1 (unknown origin)
[7] = biological target: Cyclin-dependent kinase 2/cyclin E1 (Homo sapiens, UniProt P24941); assay: Inhibition of CDK2/CyclinE (unknown origin) in presence of ATP; type: protein-complex assay
[8] = biological target: High affinity nerve growth factor receptor (Homo sapiens, UniProt P04629); assay: Inhibition of TRKA (unknown origin)
[9] = biological target: Leucine-rich repeat serine/threonine-protein kinase 2 (Homo sapiens, UniProt Q5S007); assay: Inhibition of LRRK2 (unknown origin)
[10] = biological target: Cyclin-dependent kinase 9 (Homo sapiens, UniProt P50750); assay: Inhibition of CDK9 (unknown origin)
[11] = biological target: Tyrosine-protein kinase BTK (Homo sapiens, UniProt Q06187); assay: Inhibition of BTK (unknown origin)
[12] = biological target: Mitogen-activated protein kinase 14 (Homo sapiens, UniProt Q16539); assay: Inhibition of MAPK14 (unknown origin) after 22 mins by homogeneous time-resolved fluorescence assay
[13] = biological target: T2, Tyrosine-protein kinase ITK/TSK (Homo sapiens, UniProt Q08881); assay: Inhibition of ITK (unknown origin)
T2 sequence (Q08881 whole entry): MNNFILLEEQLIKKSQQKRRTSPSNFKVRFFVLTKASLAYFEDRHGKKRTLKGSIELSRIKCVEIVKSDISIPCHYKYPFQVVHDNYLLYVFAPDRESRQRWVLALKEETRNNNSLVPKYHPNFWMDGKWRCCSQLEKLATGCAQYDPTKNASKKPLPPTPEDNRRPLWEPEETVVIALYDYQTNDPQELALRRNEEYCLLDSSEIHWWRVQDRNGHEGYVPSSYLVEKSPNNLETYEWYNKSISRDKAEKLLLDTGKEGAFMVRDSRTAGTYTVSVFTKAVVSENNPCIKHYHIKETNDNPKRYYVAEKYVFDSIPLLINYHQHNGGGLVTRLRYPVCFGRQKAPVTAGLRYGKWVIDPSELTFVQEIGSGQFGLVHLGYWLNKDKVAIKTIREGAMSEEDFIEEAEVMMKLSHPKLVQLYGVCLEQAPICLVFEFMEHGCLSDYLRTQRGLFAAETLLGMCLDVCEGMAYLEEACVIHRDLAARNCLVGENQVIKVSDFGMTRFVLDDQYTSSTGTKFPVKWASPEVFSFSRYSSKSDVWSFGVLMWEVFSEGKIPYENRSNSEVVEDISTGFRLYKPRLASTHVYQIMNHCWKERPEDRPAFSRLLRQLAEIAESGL

[14] = biological target: T3, Inhibitor of nuclear factor kappa-B kinase subunit beta (Homo sapiens, UniProt O14920); assay: Inhibition of IKKbeta (unknown origin)
T3 sequence (O14920 whole entry): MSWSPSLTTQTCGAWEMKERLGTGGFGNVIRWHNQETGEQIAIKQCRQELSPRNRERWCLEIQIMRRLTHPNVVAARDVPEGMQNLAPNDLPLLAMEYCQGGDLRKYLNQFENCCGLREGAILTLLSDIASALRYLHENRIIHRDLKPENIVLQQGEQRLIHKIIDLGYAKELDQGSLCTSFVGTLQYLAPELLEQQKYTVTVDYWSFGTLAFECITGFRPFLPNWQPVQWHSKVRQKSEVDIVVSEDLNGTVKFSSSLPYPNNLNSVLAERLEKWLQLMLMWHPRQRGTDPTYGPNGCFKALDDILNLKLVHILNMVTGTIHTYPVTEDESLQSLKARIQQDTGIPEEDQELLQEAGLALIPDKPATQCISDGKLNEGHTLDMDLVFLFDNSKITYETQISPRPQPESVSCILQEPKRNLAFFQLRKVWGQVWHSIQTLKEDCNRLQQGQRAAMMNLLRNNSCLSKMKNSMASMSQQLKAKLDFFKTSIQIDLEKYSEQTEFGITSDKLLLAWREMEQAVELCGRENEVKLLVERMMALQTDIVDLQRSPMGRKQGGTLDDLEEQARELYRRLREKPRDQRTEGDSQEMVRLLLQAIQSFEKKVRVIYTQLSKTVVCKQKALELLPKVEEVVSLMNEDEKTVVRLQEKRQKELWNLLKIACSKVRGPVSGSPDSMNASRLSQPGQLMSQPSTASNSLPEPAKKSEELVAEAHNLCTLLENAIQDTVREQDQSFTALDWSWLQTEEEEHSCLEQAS

Aurora kinase B = Aurora kinase B (Homo sapiens, UniProt Q96GD4); assay: Inhibition of Aurora B (unknown origin)
[15] = biological target: Cyclin-dependent kinase 5/CDK5 activator 1 (Homo sapiens, UniProt Q00535); assay: Inhibition of CDK5/p35 (unknown origin) in presence of ATP; type: protein-complex assay
Homo sapiens [16] = organism: Homo sapiens; assay: Selectivity ratio of IC50 for CDK9 (unknown origin) to IC50 for CDK2/CyclinE (unknown origin)
[17] = biological target: Mitogen-activated protein kinase 10 (Homo sapiens, UniProt P53779); assay: Inhibition of JNK3 (unknown origin) after 22 mins by homogeneous time-resolved fluorescence assay
Homo sapiens [18] = organism: Homo sapiens; assay: Selectivity ratio of IC50 for CDK9 (unknown origin) to IC50 for CDK5/p35 (unknown origin)
[19] = biological target: T4, Mitogen-activated protein kinase kinase kinase 12 (Homo sapiens, UniProt Q12852); assay: Inhibition of DLK (unknown origin)
T4 sequence (Q12852 whole entry): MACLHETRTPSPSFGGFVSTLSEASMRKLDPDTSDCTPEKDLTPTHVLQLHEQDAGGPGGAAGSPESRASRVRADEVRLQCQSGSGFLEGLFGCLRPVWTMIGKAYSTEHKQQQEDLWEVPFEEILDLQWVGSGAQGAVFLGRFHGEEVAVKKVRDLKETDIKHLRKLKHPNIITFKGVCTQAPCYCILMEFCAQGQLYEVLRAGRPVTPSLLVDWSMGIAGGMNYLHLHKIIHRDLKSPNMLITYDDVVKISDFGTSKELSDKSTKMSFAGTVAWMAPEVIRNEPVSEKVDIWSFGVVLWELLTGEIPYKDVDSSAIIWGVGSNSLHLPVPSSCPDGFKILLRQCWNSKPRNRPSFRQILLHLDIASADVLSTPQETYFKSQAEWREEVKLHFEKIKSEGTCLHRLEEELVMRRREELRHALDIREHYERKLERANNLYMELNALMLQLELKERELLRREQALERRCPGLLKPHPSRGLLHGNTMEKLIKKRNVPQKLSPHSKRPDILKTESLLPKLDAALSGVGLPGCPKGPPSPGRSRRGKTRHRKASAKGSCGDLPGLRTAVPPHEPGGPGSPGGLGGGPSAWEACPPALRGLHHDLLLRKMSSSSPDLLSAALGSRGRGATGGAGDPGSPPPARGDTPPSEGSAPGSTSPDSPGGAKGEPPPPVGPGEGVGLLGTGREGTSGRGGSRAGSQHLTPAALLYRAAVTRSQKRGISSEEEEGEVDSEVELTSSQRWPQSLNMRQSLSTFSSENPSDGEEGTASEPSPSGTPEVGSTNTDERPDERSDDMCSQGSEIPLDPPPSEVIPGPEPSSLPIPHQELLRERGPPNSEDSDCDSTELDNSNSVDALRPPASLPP

Sequence of Cyclin-dependent kinase 5/CDK5 activator 1 (Homo sapiens) (Q00535 whole entry): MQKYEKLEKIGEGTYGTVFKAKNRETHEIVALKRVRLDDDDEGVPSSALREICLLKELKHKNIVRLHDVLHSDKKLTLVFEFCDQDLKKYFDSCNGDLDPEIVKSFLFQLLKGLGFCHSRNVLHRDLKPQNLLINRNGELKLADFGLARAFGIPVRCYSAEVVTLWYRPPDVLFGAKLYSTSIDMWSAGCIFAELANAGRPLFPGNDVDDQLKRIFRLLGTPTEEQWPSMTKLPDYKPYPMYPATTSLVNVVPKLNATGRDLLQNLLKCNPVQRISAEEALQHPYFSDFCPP
Sequence of Cyclin-dependent kinase 5/CDK5 activator 1 (Homo sapiens) (Q15078 99-307 partner limits assumed): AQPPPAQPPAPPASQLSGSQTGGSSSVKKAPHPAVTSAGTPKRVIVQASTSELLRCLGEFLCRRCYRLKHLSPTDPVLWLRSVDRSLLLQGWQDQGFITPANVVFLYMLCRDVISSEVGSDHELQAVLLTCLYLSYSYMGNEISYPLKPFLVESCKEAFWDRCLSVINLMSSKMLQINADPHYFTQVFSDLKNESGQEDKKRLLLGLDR
Sequence of Cyclin-dependent kinase 5/CDK5 activator 1 (Q00535 whole entry): as the sequence (Q00535 whole entry) above
Sequence of Cyclin-dependent kinase 5/CDK5 activator 1 (Q15078 whole entry, further chain): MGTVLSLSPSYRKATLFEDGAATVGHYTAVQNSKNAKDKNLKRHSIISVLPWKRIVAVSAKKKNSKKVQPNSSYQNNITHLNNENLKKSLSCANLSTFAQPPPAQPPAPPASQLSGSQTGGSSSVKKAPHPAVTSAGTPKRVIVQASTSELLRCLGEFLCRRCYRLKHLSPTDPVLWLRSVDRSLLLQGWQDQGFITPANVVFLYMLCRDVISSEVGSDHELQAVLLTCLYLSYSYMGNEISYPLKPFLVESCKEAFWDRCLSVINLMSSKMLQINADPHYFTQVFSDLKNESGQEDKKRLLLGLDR
Sequence of Aurora kinase B (Q96GD4 whole entry): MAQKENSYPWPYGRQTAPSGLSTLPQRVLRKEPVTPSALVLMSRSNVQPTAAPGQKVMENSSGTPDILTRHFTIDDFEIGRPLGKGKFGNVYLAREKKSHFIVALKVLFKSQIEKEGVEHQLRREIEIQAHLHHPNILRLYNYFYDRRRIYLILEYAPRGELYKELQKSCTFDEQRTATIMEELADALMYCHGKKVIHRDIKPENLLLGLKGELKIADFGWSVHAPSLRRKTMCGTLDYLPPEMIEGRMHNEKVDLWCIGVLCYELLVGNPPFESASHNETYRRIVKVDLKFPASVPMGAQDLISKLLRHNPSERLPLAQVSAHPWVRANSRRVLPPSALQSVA
Sequence of Mitogen-activated protein kinase 14 (Q16539 whole entry): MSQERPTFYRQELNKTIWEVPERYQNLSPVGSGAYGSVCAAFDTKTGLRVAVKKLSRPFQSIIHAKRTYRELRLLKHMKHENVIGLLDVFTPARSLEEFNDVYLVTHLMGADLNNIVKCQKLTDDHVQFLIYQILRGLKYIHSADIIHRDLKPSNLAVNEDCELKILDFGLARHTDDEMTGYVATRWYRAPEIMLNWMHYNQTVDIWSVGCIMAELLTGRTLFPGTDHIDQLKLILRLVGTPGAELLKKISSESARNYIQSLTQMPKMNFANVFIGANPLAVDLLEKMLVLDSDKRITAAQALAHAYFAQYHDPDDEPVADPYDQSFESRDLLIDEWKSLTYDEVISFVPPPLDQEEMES
Sequence of Leucine-rich repeat serine/threonine-protein kinase 2 (Q5S007 whole entry): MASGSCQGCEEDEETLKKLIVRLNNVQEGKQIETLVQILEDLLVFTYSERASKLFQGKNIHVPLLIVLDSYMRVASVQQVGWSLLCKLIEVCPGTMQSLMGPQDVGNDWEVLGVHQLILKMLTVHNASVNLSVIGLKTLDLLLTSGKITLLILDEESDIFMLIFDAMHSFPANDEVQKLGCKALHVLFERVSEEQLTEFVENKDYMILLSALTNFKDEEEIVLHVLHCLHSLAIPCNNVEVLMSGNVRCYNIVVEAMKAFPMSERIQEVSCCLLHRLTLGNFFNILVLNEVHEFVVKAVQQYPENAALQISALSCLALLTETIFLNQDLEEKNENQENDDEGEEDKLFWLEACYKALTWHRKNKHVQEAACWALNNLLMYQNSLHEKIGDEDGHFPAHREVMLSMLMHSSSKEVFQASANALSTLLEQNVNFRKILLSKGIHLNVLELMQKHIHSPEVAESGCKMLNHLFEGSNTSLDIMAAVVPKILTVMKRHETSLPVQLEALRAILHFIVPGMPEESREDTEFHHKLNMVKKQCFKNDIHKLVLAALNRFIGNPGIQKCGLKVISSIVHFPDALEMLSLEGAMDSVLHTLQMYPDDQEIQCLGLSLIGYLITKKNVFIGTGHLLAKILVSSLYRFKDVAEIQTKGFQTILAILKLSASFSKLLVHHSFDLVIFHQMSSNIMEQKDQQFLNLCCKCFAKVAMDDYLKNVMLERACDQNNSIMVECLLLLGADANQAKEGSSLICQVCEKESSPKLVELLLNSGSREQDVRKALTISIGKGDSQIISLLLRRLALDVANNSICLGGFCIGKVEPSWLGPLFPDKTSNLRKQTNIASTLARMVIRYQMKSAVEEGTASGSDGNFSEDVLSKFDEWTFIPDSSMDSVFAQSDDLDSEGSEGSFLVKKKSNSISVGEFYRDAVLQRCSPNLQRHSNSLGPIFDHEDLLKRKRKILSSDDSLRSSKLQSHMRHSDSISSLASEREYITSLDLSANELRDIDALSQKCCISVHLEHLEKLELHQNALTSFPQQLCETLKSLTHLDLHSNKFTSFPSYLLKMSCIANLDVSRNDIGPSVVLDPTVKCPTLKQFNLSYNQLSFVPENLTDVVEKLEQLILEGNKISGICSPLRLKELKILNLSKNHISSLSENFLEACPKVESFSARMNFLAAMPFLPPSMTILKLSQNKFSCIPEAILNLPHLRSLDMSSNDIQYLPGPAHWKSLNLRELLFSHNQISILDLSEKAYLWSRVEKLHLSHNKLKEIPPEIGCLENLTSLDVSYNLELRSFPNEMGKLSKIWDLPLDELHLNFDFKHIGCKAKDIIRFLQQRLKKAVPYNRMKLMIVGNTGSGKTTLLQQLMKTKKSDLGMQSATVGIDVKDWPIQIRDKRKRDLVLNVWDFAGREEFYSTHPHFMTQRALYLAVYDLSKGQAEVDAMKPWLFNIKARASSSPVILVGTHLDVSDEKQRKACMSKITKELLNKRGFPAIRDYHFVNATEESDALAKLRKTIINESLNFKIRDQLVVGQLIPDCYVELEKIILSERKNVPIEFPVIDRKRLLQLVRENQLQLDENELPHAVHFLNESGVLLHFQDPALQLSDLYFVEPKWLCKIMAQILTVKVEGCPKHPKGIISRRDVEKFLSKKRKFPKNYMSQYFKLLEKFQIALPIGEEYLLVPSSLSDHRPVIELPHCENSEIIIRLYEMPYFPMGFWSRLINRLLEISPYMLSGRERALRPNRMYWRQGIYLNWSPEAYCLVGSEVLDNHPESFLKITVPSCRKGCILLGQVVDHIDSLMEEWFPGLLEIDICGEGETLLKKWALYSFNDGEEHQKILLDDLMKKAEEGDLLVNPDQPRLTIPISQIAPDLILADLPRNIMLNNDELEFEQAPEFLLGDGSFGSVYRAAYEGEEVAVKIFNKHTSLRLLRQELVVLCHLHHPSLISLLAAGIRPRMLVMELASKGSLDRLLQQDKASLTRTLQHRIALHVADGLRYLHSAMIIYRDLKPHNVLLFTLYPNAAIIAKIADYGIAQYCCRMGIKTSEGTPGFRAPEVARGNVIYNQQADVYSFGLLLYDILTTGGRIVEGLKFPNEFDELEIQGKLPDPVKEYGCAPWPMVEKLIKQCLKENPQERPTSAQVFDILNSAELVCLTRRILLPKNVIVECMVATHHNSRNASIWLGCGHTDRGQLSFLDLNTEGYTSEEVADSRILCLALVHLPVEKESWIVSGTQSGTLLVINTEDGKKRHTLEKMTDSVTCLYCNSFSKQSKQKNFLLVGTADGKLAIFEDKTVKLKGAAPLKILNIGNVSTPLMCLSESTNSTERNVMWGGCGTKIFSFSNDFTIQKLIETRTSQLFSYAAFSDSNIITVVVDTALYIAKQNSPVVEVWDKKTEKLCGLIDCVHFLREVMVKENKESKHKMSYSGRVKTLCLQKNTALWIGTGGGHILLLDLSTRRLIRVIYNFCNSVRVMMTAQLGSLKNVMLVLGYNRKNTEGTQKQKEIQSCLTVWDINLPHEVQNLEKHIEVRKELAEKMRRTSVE
Sequence of Serine/threonine-protein kinase PAK 1 (Q13153 whole entry): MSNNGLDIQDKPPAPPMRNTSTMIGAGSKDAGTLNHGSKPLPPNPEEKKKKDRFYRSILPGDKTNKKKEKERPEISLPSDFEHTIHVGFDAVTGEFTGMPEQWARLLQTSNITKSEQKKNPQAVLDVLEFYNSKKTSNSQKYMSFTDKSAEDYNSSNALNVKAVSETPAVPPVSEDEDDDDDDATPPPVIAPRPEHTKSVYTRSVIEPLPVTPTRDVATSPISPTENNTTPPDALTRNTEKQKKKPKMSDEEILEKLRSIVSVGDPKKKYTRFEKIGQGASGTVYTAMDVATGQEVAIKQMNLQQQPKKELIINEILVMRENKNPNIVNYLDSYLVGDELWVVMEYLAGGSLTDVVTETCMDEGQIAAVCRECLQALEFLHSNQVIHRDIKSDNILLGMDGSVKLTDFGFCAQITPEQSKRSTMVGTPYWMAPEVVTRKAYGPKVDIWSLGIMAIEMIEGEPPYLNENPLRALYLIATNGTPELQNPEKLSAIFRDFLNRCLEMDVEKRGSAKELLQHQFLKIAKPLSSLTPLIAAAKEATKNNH

For `COc1ccc(CC(=O)Nc2n[nH]c3ccccc23)cc1OC`, which inhibition [1] is on record?
Its inhibition is > 90%.

And the “fold change (FC)” value (MIA PaCa-2 [2])?
Its value is <2.

With `Cc1cc(NC(=O)Cc2ccc3c(c2)OCCO3)n[nH]1` as the molecule, how does the inhibition [1] read?
The inhibition was > 90%.

What about the “fold change (FC)” value (MIA PaCa-2 [2]) of the same molecule?
The value was <2.

What does the source list for `Cc1cc(NC(=O)Cc2ccc3ccccc3c2)n[nH]1`?
inhibition [1]: > 90%; fold change (FC) (MIA PaCa-2 [2]): <2

With `Cc1cc(NC(=O)C/C=C/c2ccccc2)n[nH]1` as the molecule, how does the inhibition [1] read?
Its inhibition is > 90%.

What about the “fold change (FC)” value (MIA PaCa-2 [2]) of the same molecule?
Its value is <2.

For `O=C(C/C=C/c1ccccc1)Nc1cc(C2CCC2)[nH]n1`, which IC50 [3] is on record?
The IC50 was > 2 µM.

And the IC50 (ASPC1)?
Its IC50 is > 2 µM.

What about the IC50 [4] of the same molecule?
Its IC50 is 1.47 µM.

And the inhibition [1]?
The inhibition was > 90%.

And the “fold change (FC)” value (MIA PaCa-2 [2])?
Its value is >2.

And the IC50 (BXPC-3)?
Its IC50 is > 2 µM.

What about the IC50 (MIA PaCa-2 [5]) of the same molecule?
The IC50 was 1.56 µM.

Which results are given for `O=C(C/C=C/c1ccccc1)Nc1cc(C2CCCC2)[nH]n1`?
inhibition [1]: > 90%; fold change (FC) (MIA PaCa-2 [2]): <2

What does the source list for `O=C(Cc1ccc(-c2ccccc2)cc1)Nc1cc(C2CCC2)[nH]n1`?
IC50 [3]: 0.209 µM; IC50 (Aurora kinase A): > 10 µM; IC50 (ASPC1): 0.315 µM; IC50 [6]: > 10 µM; IC50 [4]: 0.192 µM; IC50 [7]: 0.024 µM; IC50 [8]: > 10 µM; IC50 [9]: > 10 µM; inhibition [1]: > 90%; IC50 [10]: 0.911 µM; IC50 [11]: > 10 µM; IC50 [12]: > 10 µM; IC50 [13]: > 10 µM; IC50 [14]: > 10 µM; IC50 (Aurora kinase B): > 10 µM; fold change (FC) (MIA PaCa-2 [2]): >2; IC50 [15]: 0.023 µM; Ratio IC50 (Homo sapiens [16]): > 35; IC50 [17]: > 10 µM; IC50 (MIA PaCa-2 [5]): 0.247 µM; Ratio IC50 (Homo sapiens [18]): > 35; IC50 [19]: > 10 µM

Which results are given for `O=C(C/C=C/c1ccccc1)Nc1n[nH]c2ccccc12`?
inhibition [1]: > 90%; fold change (FC) (MIA PaCa-2 [2]): <2

With `O=C(Cc1ccc2c(c1)OCCO2)Nc1cc(C2CCC2)[nH]n1` as the molecule, how does the inhibition [1] read?
Its inhibition is > 90%.

What about the “fold change (FC)” value (MIA PaCa-2 [2]) of the same molecule?
The value was <2.

Which IC50 [3] does the source give for `O=C(Cc1ccc2ccccc2c1)Nc1cc(C2CCC2)[nH]n1` here?
The IC50 was > 2 µM.

What about the IC50 (ASPC1) of the same molecule?
Its IC50 is 1.16 µM.

What about the IC50 [4] of the same molecule?
The IC50 was 0.875 µM.

And the inhibition [1]?
The inhibition was > 90%.

And the “fold change (FC)” value (MIA PaCa-2 [2])?
The value was >2.

And the IC50 (BXPC-3)?
The IC50 was > 2 µM.

What does the source list for `O=C(Cc1ccc2ccccc2c1)Nc1cc(C2CC2)n[nH]1`?
inhibition [1]: > 90%; fold change (FC) (MIA PaCa-2 [2]): <2

With `COc1ccc(CC(=O)Nc2cc(C3CCC3)[nH]n2)cc1OC` as the molecule, how does the inhibition [1] read?
Its inhibition is > 90%.

What about the “fold change (FC)” value (MIA PaCa-2 [2]) of the same molecule?
The value was <2.

With `O=C(Cc1ccc2c(c1)OCCO2)Nc1cc(C2CCCC2)[nH]n1` as the molecule, how does the inhibition [1] read?
Its inhibition is > 90%.

What about the “fold change (FC)” value (MIA PaCa-2 [2]) of the same molecule?
Its value is <2.

Which IC50 [3] does the source give for `O=C(NC1CCNCC1)c1n[nH]cc1NC(=O)c1c(Cl)cccc1Cl` [AT-7519] here?
Its IC50 is 0.557 µM.

What about the IC50 [4] of the same molecule?
The IC50 was 2.77 µM.

And the IC50 (BXPC-3)?
Its IC50 is 0.64 µM.

And the IC50 (MIA PaCa-2 [5])?
The IC50 was 0.411 µM.

For `O=C(Cc1ccc2c(c1)OCCO2)Nc1cc(-c2ccccc2)[nH]n1`, which inhibition [1] is on record?
Its inhibition is > 90%.

What about the “fold change (FC)” value (MIA PaCa-2 [2]) of the same molecule?
Its value is <2.
